“Also recorded” adds a separate entry of the source.
How the values were obtained:
[1] = Photosensitivity screening: H2O2 formation by antioxidant candidates upon light exposure (Amplex Ultra Red Assay); type: physicochemical; conditions: for (H2O2 produced by Compound)/(H2O2 produced by L-Trp): 1 mM in 20 mM histidine acetate pH 5.5, four hours of light at 250 W/m^2; for H2O2 production upon light exposure compared to L-Trp (in words) / H2O2 produced in comparison to L-Trp (times more): 1 mM, 20 mM L-His-acetate pH 5.5, 4 h light; for H2O2 production upon light exposure compared to L-Trp (in words): 0.22 million lux hours
Experimental: As a screening tool, antioxidant candidates were exposed to light for four hours at 250 W/m^2 and the resulting H2O2 formation was quantified by the Amplexassay. Specifically, antioxidants were prepared to 1 mM in 20 mM histidine acetate buffer at pH 5.5. The 1 mM antioxidant solutions were aliquoted into glass vials (2 mL/glass vial) and exposed to four hours of light at 250 W/m^2 in an Atlas SunTest CPS+ Xenon Test Instrument (Chicago, Ill.). Total UV dose was 90 watt-hours/square meter and total visible dose was 0.22 million lux hours over the 4-hour period. Control vials were wrapped in aluminum foil and treated similarly. The amount of hydrogen peroxide generated after exposure to light was measured using the Amplex® Ultra Red Assay (Invitrogen, Carlsbad, Calif.) following the manufacturer's recommended procedure. On addition of horseradish peroxidase (HRP), the dye reacted 1:1 stoichiometrically with H2O2, resulting in the production of fluorescent oxidation product resorufin. In this study, fluorescence readings were obtained using a Spectra Max M2 Micro-plate Reader (Molecular Devices, Sunnyvale, Calif.) with excitation and emission set at 560 nm and 590 nm, respectively. Final H2O2 concentrations were determined using a standard curve ranging from 0 μm to 20 μm. […]

[2] = Cyclic voltammetry (CV) screening of oxidation potentials; type: physicochemical; conditions: for Oxidation Potential (anodic peak): glassy carbon working electrode, 0.2 M lithium perchlorate; for Oxidation potential relative to L-Trp (in words): cyclic voltammetry
Experimental: The oxidation/reduction characteristics of the compounds were investigated. Several compounds, including L-Trp and derivatives, were evaluated for the protection of Trp oxidation in proteins using cyclic voltammetry (CV) and rank ordered based on their oxidation potentials (Table 2). Specifically, the candidate antioxidants were dissolved in deionized water and then added to a 0.2 M lithium perchlorate electrolyte solution. […] Solutions were scanned from −0.10 V to +1.50 V at a scan rate of either 100 or 500 mV/sec. The analytical cell was purged for four minutes with nitrogen before scanning of each antioxidant solution. The input was a linear scan of the potential of a working electrode, and the output was measurement of the resulting current. […] Redox reactions were characterized by sharp increases or decreases in current (peaks). The potential at which an oxidation reaction occurred was referred to as the anodic peak potential (or oxidation potential), and the potential at which a reduction occurred was referred to as is the cathodic peak (or reduction) potential.

mAb1 [3] = assay: mAb1 AAPH stress study; Fab/Fc oxidation by RP-HPLC; type: physicochemical, human; conditions: AAPH, 24 hours at 40° C.; antioxidants at 1 mM; label mAb1 = no excipient
Text: (§1) The fragments were reduced with DTT, and then separated and identified via Liquid Chromatography-Mass Spectrometry (LC-MS). […] Comparison of area integrated under the oxidized and native peaks was used to quantify HC Fab and Fc oxidation. […] By using the papain digest RP-HPLC method in the present study it was possible to investigate Trp residue oxidation by quantifying HC Fab oxidation, and Met residue oxidation by quantifying HC Fc oxidation.
% Fab oxidation and % Fc oxidation were calculated as follows: […]
Antioxidants were added at 1 mM. […] After buffer exchange, each solution was prepared for analysis by reverse-phase HPLC as described above.

mAb1 [4] = assay: mAb1 light stress study, 16 hours; Fab/Fc oxidation by RP-HPLC; type: physicochemical, human; conditions: 16 hours of light at 250 W/m^2, excipient 1 mM
Experimental: as §1
Antioxidants were added at 1 mM. Glass vials containing these formulations were exposed to 250 W/m^2 light in an Atlas SunTest CPS+ Xenon Test Instrument (Chicago, Ill.). Control vials were wrapped in aluminum foil and treated similarly. After light exposure, solutions were prepared for analysis by reverse-phase HPLC as described above.

mAb1 [5] = assay: mAb1 light stress, eight hours, with L-Trp and L-Met; Fab/Fc oxidation by papain digest RP-HPLC; type: physicochemical, human; conditions: 8 h light at 250 W/m^2
Experimental: L-tryptophan (L-Trp), an antioxidant used in protein formulations, has been recently shown to be photosensitive (Igarashi et al., Anal Sci 23(8):943-8 (2007)) and to have the ability to produce H2O2 upon light exposure. […] Control vials were wrapped in aluminum foil and treated similarly. After light exposure, solutions were prepared for analysis by reverse-phase HPLC. […] Following incubation, 900 μL of the solution was combined with 100 μL of 1 M dithiothreitol (DTT) and incubated for another thirty minutes at 37° C. Samples were then run on an Agilent, Inc. 1100/1200 HPLC system (Santa Clara, Calif.) equipped with UV detection at 280 nm in conjunction with a Varian, Inc. Pursuit 3 μm, 2 mm ID×250 mm diphenyl column (Palo Alto, Calif.). Mobile Phase A was 0.1% TFA in water. Mobile Phase B was 0.1% TFA in acetonitrile. The mobile phase gradient increased linearly from 34% B at 0 minutes to 43% B at 50.0 minutes, then to 95% B at 50.1 minutes. The gradient remained at 95% B until 60.1 minutes, and then decreased linearly from 95% B to 34% B between 60.1 and 60.2 minutes. The gradient remained at 34% B until the end of the cycle at 80.2 minutes. The column temperature was 65° C., total flow rate was 0.2 mL/min, and injection volume of each sample was 6 μL. Chromatograms were then integrated for quantification of oxidation.

Row | SMILES | (H2O2 produced by Compound)/(H2O2 produced by L-Trp) [1] | Oxidation Potential (anodic peak) [2] [V vs Ag/AgCl] | H2O2 production upon light exposure compared to L-Trp (in words) [1] | Oxidation potential relative to L-Trp (in words) [2] | also measured
1 | CC(=O)N[C@@H](Cc1c[nH]c2ccccc12)C(=O)O [N-Acetyl-L-Trp, N-Acetyl-Tryptophan] | 0.31 | 0.875 | – | – | –
2 | Oc1cccc2[nH]ccc12 [4-Hydroxyindole, 4-Hydroxy Indole] | 0.00 | – | – | – | –
3 | N[C@@H](Cc1c[nH]c2ccc(O)cc12)C(=O)O [5-Hydroxy-L-Trp, 5-Hydroxy-Tryptophan] | 0.09 | 0.565 | – | – | Fab (Trp residue) oxidation of mAb1 after AAPH incubation (mAb1 [3]): about 2%; Effect on light-induced Fab oxidation (in words) (mAb1 [4]): reducing Fab oxidation to near control levels; H2O2 production upon light exposure compared to L-Trp (in words) ([1]; listed as 5-hydroxy-L-tryptophan): about one tenth of the H2O2; also recorded: low levels of H2O2 production
4 | Nc1ccc(O)cc1C(=O)O [5-Hydroxyanthranilic Acid, 5-Hydroxy Anthranilic Acid] | 0.44 | – | half as much H2O2 | – | –
5 | c1ccc2[nH]ccc2c1 [Indole] | 0.95 | – | behaved similarly to L-Trp | significantly lower oxidation potential than L-Trp | –
6 | COc1ccc2[nH]cc(C[C@H](N)C(=O)O)c2c1 (racemic) [5-Methoxy-DL-Trp, 5-Methoxy-Tryptophan] | 1.05 | 0.890 | produced more H2O2 | – | –
7 | CSCC[C@H](N)C(=O)O [L-Met, L-methionine] | – | – | – | – | Effect on Fab oxidation of mAb1 (in words) (mAb1 [5]; 10, 25, 50, 100 mM L-Met added to formulation containing 1 mM L-Trp): appeared to reduce Fab oxidation slightly; Effect on Fc oxidation of mAb1 (in words) (mAb1 [5]; L-Met 10, 25, 50, 100 mM added to 1 mM L-Trp, label mAb1 = No Excipient): reduced the amount of Fc oxidation
8 | Cc1c(C)c2c(c(C)c1O)CCC(C)(C(=O)O)O2 (stereo not drawn) [Trolox] | 122.75 | – | – | – | H2O2 produced in comparison to L-Trp (times more) [1]: 123 times
9 | COc1ccc2[nH]cc(CCNC(C)=O)c2c1 [N-acetyl-5-methoxytryptamine] | 0.28 | 0.730 | less than a third of the H2O2 | – | –
10 | Nc1ccc2[nH]cc(C[C@H](N)C(=O)O)c2c1 (racemic) [5-Amino-DL-Trp, 5-Amino-Tryptophan] | 0.29 | 0.410 | low levels of H2O2 production | – | –
11 | N[C@@H](Cc1c[nH]c2ccc(F)cc12)C(=O)O [5-Fluoro-L-Trp, 5-Fluoro-Tryptophan] | 0.71 | 0.965 | produced more H2O2 | higher oxidation potential than L-Trp | –
12 | Nc1ccccc1C(=O)O [Anthranilic Acid] | 2.50 | – | twice as much H2O2 | – | –
13 | NC(=O)[C@@H](N)Cc1c[nH]c2ccccc12 [L-Trpamide, Tryptophanamide] | 0.43 | 1.015 | – | higher oxidation potential than L-Trp | Fc oxidation under light stress compared to no excipient control (in words) (mAb1 [4]): more Fc oxidation; Fab oxidation increase over the control level (mAb1 Ref Mat) (mAb1 [4]; label mAb1 = No Excipient): 8 fold
14 | NCCc1c[nH]c2ccccc12 [Tryptamine] | 0.53 | 1.010 | about half as much H2O2 | higher oxidation potential than L-Trp | H2O2 production upon light exposure compared to L-Trp (in words) ([1]; listed as tryptamine): two times less
15 | Nc1ccccc1C(=O)CC(N)C(=O)O [L-Kynurenine, Kynurenine] | 0.20 | 1.040 | – | higher oxidation potential than L-Trp | H2O2 production upon light exposure compared to L-Trp (in words) ([1]; listed as L-kynurenine): did not produce much H2O2; H2O2 production upon light exposure compared to L-Trp (in words) ([1]; listed as kynurenine): about one fifth of the H2O2
16 | O=C(O)Cc1c[nH]c2ccccc12 [Indole-3-Acetic Acid] | 2.40 | 0.948 | twice as much H2O2; also recorded: two times more; also recorded: produced more H2O2 | higher oxidation potential than L-Trp | –
17 | O=C(O)c1cc2cccc(O)c2[nH]1 [7-Hydroxyindole-2-Carboxylic Acid, 7-Hydroxy Indole-2-Carboxylic Acid] | 0.15 | – | – | – | –
18 | Cc1ncc(CO)c(CO)c1O [Pyridoxine] | 5.16 | – | – | – | H2O2 produced in comparison to L-Trp (times more) [1]: 5 times
19 | O=C(O)Cc1c[nH]c2ccc(O)cc12 [5-Hydroxyindole-3-Acetic Acid, 5-Hydroxy Indole-3-Acetic Acid] | 0.11 | 0.535 | low levels of H2O2 production | – | –
20 | Oc1cccc2cc[nH]c12 [7-Hydroxyindole, 7-Hydroxy Indole] | −0.03 | – | – | – | Fab (Trp residue) oxidation of mAb1 after AAPH incubation (mAb1 [3]): about 2%; Effect on light-induced Fab oxidation (in words) (mAb1 [4]): reducing Fab oxidation to near control levels
21 | NC(Cc1c[nH]c2ccc([N+](=O)[O-])cc12)C(=O)O (racemic) [5-nitro-DL-tryptophan] | – | 1.055 | – | higher oxidation potential than L-Trp | –
22 | O=C(O)c1cc(O)ccc1O [5-Hydroxysalicylic Acid, 5-Hydroxy Salicylic Acid] | 0.84 | – | – | – | –

Source: patent publication US10653779B2, “Formulations with reduced oxidation” (Genentech, Inc., priority 2013, dated 2020)
